From article PMC7021761 (Nature Communications, 2020)

Columns and labels:
FPR1 = conditions: cited from earlier work
Source text: FPR1 and FPR2 share a high 69% sequence identity, but they have distinct preferences for formylpeptides and play different roles in host defense[4],[40],[43]. […] To explore the molecular basis for the different receptor pharmacology, we generated a three-dimensional homology model of FPR1 ...

C5aR = target: T1, C5aR (Homo sapiens, UniProt P21730); assay: 35S-GTPγS binding assay, Sf9 cell membranes overexpressing C5aR with purified Gi (control); format: biochemical; conditions: increasing concentrations of WKYMVm, n = 3
T1 construct: expressed in transfected cells; host or cells: Sf9 insect cells, membranes
T1 sequence (P21730 1-350): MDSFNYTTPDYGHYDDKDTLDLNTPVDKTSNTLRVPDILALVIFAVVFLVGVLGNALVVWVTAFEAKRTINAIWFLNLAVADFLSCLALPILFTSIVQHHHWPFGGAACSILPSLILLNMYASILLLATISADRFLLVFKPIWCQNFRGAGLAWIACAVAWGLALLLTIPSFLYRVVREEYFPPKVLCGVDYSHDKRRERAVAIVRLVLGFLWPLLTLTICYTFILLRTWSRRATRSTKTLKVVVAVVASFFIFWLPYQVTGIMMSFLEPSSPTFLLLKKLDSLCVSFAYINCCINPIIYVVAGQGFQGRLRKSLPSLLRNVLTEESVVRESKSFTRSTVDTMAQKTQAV
Procedure: To form receptor-Gi complex, ~250 μg/ml of membrane of Sf9 cells overexpressing FPR2 or C5aR (for Fig. 1a) or membrane of HEK-293 cells transiently expressing FPR2 and mutants was incubated with 200 nM purified Gi protein for 25 minutes at 4°C in buffer containing 20 mM HEPES pH 7.5, 100 mM NaCl, 5 mM MgCl2, 5 μM GDP, 0.1 μM TCEP, and 3 μg/ml BSA. […] After 10–15 min reaction at 25 °C, 4 ml of cold wash buffer containing 20 mM HEPES pH 7.5, 100 mM NaCl and 5 mM MgCl2 was added to terminate the reaction, and the membranes was collected by filtering through glass fiber prefilters (Millipore Sigma). After four times additional wash, the filters were incubated with 5 ml of CytoScint liquid scintillation cocktail (MP Biomedicals) and counted in a Beckman LS6500 scintillation counter to determine the receptor activation induced binding of ^35S-GTPγS to Gi. The data were analyzed by GraphPad Prism 6 (GraphPad Software). Results are presented as mean ± s.e.m. from three independent experiments.

FPR2 R201A [1] = target: T2, FPR2 R201A (Homo sapiens, UniProt P25090, R201A); assay: BRET assay of Gi coupling to FPR2-Rluc8, permeabilized HEK-293 cells, R201A; format: cell-based; design: expressed in transfected cells; host or cells: HEK-293 cells (ATCC), transient, digitonin-permeabilized
Procedure: (§1) HEK-293 cells (ATCC, Manassas, VA, USA) were propagated in plastic flasks and on 6-well plates according to the supplier’s protocol. To measure Gi coupling to FPR2, cells were transiently transfected with an FPR2-Rluc8 receptor (wt or mutant) and Gαi1, Venus-1-155-Gγ2 and Venus-155-239-Gβ1 using linear polyethyleneimine MAX (PEI MAX; MW 40,000) at an N/P ratio of 20 and were used for experiments 48 h later. Up to 3.0 μg of plasmid DNA was transfected in each well of a 6-well plate. To measure BRET signals, cells were washed twice with permeabilization buffer (KPS) containing 140 mM KCl, 10 mM NaCl, 1 mM MgCl2, 0.1 mM KEGTA, 20 mM NaHEPES (pH 7.2), harvested by trituration, permeabilized in KPS buffer containing 10 μg ml^−1 high purity digitonin, and transferred to opaque black 96-well plates containing diluted ligands and 2U ml^−1 apyrase. After addition of coelenterazine h (5 µM; Nanolight, Pinetop, AZ, USA), steady-state BRET measurements were made using a Mithras LB940 photon-counting plate reader (Berthold Technologies GmbH, Bad Wildbad, Germany). Raw BRET signals were calculated as the emission intensity at 520–545 nm divided by the emission intensity at 475–495 nm. The data were analyzed in Prism (GraphPad) by using ‘log(agonist) vs normalized response- variable slope (four parameters)’ of dose-response stimulation.
Target sequence in this assay (P25090 whole entry R201A): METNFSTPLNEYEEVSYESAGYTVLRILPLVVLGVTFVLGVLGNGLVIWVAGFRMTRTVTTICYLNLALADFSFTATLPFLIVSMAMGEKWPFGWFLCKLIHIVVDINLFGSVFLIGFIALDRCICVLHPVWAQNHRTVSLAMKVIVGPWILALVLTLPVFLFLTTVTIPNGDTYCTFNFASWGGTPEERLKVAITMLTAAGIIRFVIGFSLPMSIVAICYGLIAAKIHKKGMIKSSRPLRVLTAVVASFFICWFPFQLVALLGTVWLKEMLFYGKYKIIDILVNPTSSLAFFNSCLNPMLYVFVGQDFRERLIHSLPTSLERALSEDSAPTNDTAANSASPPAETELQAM
Target sequence in this assay (P63096 whole entry partner): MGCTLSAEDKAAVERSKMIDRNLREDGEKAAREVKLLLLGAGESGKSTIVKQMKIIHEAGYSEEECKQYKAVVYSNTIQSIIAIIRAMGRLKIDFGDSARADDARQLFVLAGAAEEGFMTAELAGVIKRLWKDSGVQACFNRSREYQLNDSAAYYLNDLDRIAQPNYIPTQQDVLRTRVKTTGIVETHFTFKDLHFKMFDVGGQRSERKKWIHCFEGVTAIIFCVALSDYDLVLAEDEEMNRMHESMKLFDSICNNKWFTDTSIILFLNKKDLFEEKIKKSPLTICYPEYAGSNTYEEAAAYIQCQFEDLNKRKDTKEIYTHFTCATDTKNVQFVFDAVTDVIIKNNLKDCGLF
Target sequence in this assay (P59768 whole entry partner): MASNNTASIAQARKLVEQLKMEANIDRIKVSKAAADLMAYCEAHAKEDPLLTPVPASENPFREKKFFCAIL
Target sequence in this assay (P62873 whole entry partner): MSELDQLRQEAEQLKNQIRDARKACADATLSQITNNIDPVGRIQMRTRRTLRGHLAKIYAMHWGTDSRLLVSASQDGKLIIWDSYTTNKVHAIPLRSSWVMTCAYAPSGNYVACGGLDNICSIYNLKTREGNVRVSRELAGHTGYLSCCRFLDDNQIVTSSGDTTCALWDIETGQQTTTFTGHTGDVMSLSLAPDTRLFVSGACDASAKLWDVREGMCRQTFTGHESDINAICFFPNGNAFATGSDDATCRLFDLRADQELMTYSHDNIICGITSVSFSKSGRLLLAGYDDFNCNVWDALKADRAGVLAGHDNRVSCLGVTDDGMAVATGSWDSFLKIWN

FPR2 R205A [2] = target: T3, FPR2 R205A (Homo sapiens, UniProt P25090, R205A); assay: BRET assay of Gi coupling to FPR2-Rluc8, permeabilized HEK-293 cells, R205A; format: cell-based; design: expressed in transfected cells; host or cells: HEK-293 cells (ATCC), transient, digitonin-permeabilized
Procedure: as §1
Target sequence in this assay (P25090 whole entry R205A): as the sequence (P25090 whole entry R201A) above, with A201R, R205A counted along it
Target sequence in this assay (P63096 whole entry partner): as the sequence (P63096 whole entry partner) above
Target sequence in this assay (P59768 whole entry partner): as the sequence (P59768 whole entry partner) above
Target sequence in this assay (P62873 whole entry partner): as the sequence (P62873 whole entry partner) above

FPR2 R205A [3] = target: T3, FPR2 R205A; assay: 35S-GTPγS binding assay, HEK-293 cell membranes with purified Gi, FPR2 R205A; format: biochemical; design: FLAG; expressed in transfected cells; host or cells: HEK-293 cells, transient, membranes
Target sequence in this assay (P25090 whole entry R205A): as the sequence (P25090 whole entry R201A) above, with A201R, R205A counted along it
Target sequence in this assay (P63096 whole entry partner): as the sequence (P63096 whole entry partner) above
Target sequence in this assay (P54311 whole entry partner): as the sequence (P62873 whole entry partner) above
Target sequence in this assay (P63212 2-68 partner limits assumed): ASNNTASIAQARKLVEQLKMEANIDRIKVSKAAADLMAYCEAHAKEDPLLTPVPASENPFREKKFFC

[4] = Aggregation of the ligand in assay buffer (authors' reply to reviewer); format: physicochemical; conditions: peptide with a high hydrophobicity; authors' statement in rebuttal, no data shown
FPR2 R201A [5] = target: T2, FPR2 R201A; assay: 35S-GTPγS binding assay, HEK-293 cell membranes with purified Gi, FPR2 R201A; format: biochemical; design: FLAG; expressed in transfected cells; host or cells: HEK-293 cells, transient, membranes
Target sequence in this assay (P25090 whole entry R201A): as the sequence (P25090 whole entry R201A) above
Target sequence in this assay (P63096 whole entry partner): as the sequence (P63096 whole entry partner) above
Target sequence in this assay (P54311 whole entry partner): as the sequence (P62873 whole entry partner) above
Target sequence in this assay (P63212 2-68 partner limits assumed): as the sequence (P63212 2-68 partner limits assumed) above

Wild type FPR2 = conditions: cited from earlier work
Source text: IC50 values of six formylpeptides in the cAMP accumulation assays reported previously by He et al., 2014*.

Trp-Lys-Tyr-Met-Val-d-Met-NH2 [WKYMVm, synthetic peptide agonist of FPR2]
potency for FPR1 compared with FPR2 (FPR1): lower potency | WKYMVm-induced Gi activation with C5aR (control) (C5aR): didn’t induce Gi activation

fMLF
fold more potent in activating FPR1 than activating FPR2 (FPR1): ~ 1000 fold

fMLFII [short formylpeptide]
fMLFII-induced Gi coupling, R201A mutant versus wt (FPR2 R201A [1]): dramatic decrease | fMLFII-induced Gi coupling, R205A mutant versus wt (FPR2 R205A [2]): dramatic decrease | fMLFII-induced FPR2 activation, R205A mutant versus wt (FPR2 R205A [3]): dramatic decrease | concentration above which fractions of aggregation could occur [4]: above 10 µM | fMLFII-induced FPR2 activation, R201A mutant versus wt (FPR2 R201A [5]): dramatic decrease

fMLFK
fold higher potency in activating FPR2 than fMLFE (Wild type FPR2): 500–5000 fold
